Organism: Rattus norvegicus
Assay: DrugMatrix - Regimen: Daily Repeat
Type: toxicity, organism-based, Sprague-Dawley
Design: regimen Daily Repeat, gender Male, age 6-8 weeks
Conditions: in vivo, po, route oral GAVAGE, vehicle .5 % CMC; for ABSOLUTE BASOPHIL / ABSOLUTE EOSINOPHIL / ABSOLUTE LYMPHOCYTE / ABSOLUTE MONOCYTE / ABSOLUTE SEGMENTED NEUTROPHIL / BASOPHIL / EOSINOPHIL / ERYTHROCYTE COUNT / HEMATOCRIT / HEMOGLOBIN / LEUKOCYTE COUNT / LYMPHOCYTE / MEAN CORPUSCULAR HEMOGLOBIN / MEAN CORPUSCULAR HEMOGLOBIN CONCENTRATION / MEAN CORPUSCULAR VOLUME / MONOCYTE / NEUTROPHIL / NUCLEATED RED BLOOD CELLS / PLATELET COUNT: tissue Blood; for ALANINE AMINOTRANSFERASE / ALBUMIN / ALKALINE PHOSPHATASE / ASPARTATE AMINOTRANSFERASE / BLOOD UREA NITROGEN / CARBON DIOXIDE / CHLORIDE / CHOLESTEROL / CREATINE PHOSPHOKINASE / CREATININE / GLUCOSE / LACTATE DEHYDROGENASE / LIPASE / PHOSPHORUS / POTASSIUM / SODIUM / TOTAL BILIRUBIN / TOTAL PROTEIN / URIC ACID: tissue Plasma
[1] = 15 mg/kg, 120 h, dose level Low, time 5 day
[2] = 710 mg/kg, 72 h, dose level High, time 3 day
[3] = 710 mg/kg, 120 h, dose level High, time 5 day

CN1C(=O)CN=C(c2ccccc2)c2cc(Cl)ccc21 [DIAZEPAM]
ABSOLUTE BASOPHIL [1]: 0 CELLS/uL
ABSOLUTE EOSINOPHIL [1]: 72 CELLS/uL
ABSOLUTE LYMPHOCYTE [1]: 10533.67 CELLS/uL
ABSOLUTE MONOCYTE [1]: 40.33 CELLS/uL
ABSOLUTE SEGMENTED NEUTROPHIL [1]: 587.33 CELLS/uL
BASOPHIL [1]: 0%
EOSINOPHIL [1]: 0.67%
ERYTHROCYTE COUNT [1]: 5.7 x10E6/uL
HEMATOCRIT [1]: 36.2%
HEMOGLOBIN [1]: 14.23 G/DL
LEUKOCYTE COUNT [1]: 11.23 x10E3/uL
LYMPHOCYTE [1]: 93.67%
MEAN CORPUSCULAR HEMOGLOBIN [1]: 25.07 pg
MEAN CORPUSCULAR HEMOGLOBIN CONCENTRATION [1]: 39.37 G/DL
MEAN CORPUSCULAR VOLUME [1]: 63.67 fL
MONOCYTE [1]: 0.33%
NEUTROPHIL [1]: 5.33%
NUCLEATED RED BLOOD CELLS [1]: 0 /100WBC
PLATELET COUNT [1]: 1134.33 x10E3/uL
ALANINE AMINOTRANSFERASE [1]: 51.33 u/L
ALBUMIN [1]: 4.17 G/DL
ALKALINE PHOSPHATASE [1]: 404.33 u/L
ASPARTATE AMINOTRANSFERASE [1]: 80.33 u/L
BLOOD UREA NITROGEN [1]: 16.33 mg/dL
CARBON DIOXIDE [1]: 27.67 mmol/L
CHLORIDE [1]: 101.67 MEQ/L
CHOLESTEROL [1]: 58.67 mg/dL
CREATINE PHOSPHOKINASE [1]: 231 u/L
CREATININE [1]: 0.18 mg/dL
GLUCOSE [1]: 147.67 mg/dL
LACTATE DEHYDROGENASE [1]: 117.67 u/L
LIPASE [1]: 9 u/L
PHOSPHORUS [1]: 12.13 mg/dL
POTASSIUM [1]: 7.09 MEQ/L
SODIUM [1]: 143.97 MEQ/L
TOTAL BILIRUBIN [1]: 0.23 mg/dL
TOTAL PROTEIN [1]: 5.93 G/DL
URIC ACID [1]: 1.43 mg/dL
ABSOLUTE BASOPHIL [2]: 0 CELLS/uL
ABSOLUTE EOSINOPHIL [2]: 125.67 CELLS/uL
ABSOLUTE LYMPHOCYTE [2]: 9703.33 CELLS/uL
ABSOLUTE MONOCYTE [2]: 42.33 CELLS/uL
ABSOLUTE SEGMENTED NEUTROPHIL [2]: 1128.67 CELLS/uL
BASOPHIL [2]: 0%
EOSINOPHIL [2]: 1%
ERYTHROCYTE COUNT [2]: 5.78 x10E6/uL
HEMATOCRIT [2]: 35.37%
HEMOGLOBIN [2]: 13.83 G/DL
LEUKOCYTE COUNT [2]: 11 x10E3/uL
LYMPHOCYTE [2]: 88.33%
MEAN CORPUSCULAR HEMOGLOBIN [2]: 23.93 pg
MEAN CORPUSCULAR HEMOGLOBIN CONCENTRATION [2]: 39.1 G/DL
MEAN CORPUSCULAR VOLUME [2]: 61.17 fL
MONOCYTE [2]: 0.33%
NEUTROPHIL [2]: 10.33%
NUCLEATED RED BLOOD CELLS [2]: 0 /100WBC
PLATELET COUNT [2]: 1330.67 x10E3/uL
ALANINE AMINOTRANSFERASE [2]: 69.67 u/L
ALBUMIN [2]: 4.07 G/DL
ALKALINE PHOSPHATASE [2]: 240 u/L
ASPARTATE AMINOTRANSFERASE [2]: 86.67 u/L
BLOOD UREA NITROGEN [2]: 14 mg/dL
CARBON DIOXIDE [2]: 33.33 mmol/L
CHLORIDE [2]: 101.33 MEQ/L
CHOLESTEROL [2]: 106.33 mg/dL
CREATINE PHOSPHOKINASE [2]: 222 u/L
CREATININE [2]: 0.21 mg/dL
GLUCOSE [2]: 159 mg/dL
LACTATE DEHYDROGENASE [2]: 204.67 u/L
LIPASE [2]: 10.67 u/L
PHOSPHORUS [2]: 12.7 mg/dL
POTASSIUM [2]: 6.45 MEQ/L
SODIUM [2]: 143.1 MEQ/L
TOTAL BILIRUBIN [2]: 0.2 mg/dL
TOTAL PROTEIN [2]: 5.53 G/DL
URIC ACID [2]: 1.27 mg/dL
ABSOLUTE BASOPHIL [3]: 0 CELLS/uL
ABSOLUTE EOSINOPHIL [3]: 31.67 CELLS/uL
ABSOLUTE LYMPHOCYTE [3]: 10193.33 CELLS/uL
ABSOLUTE MONOCYTE [3]: 269 CELLS/uL
ABSOLUTE SEGMENTED NEUTROPHIL [3]: 1672.67 CELLS/uL
BASOPHIL [3]: 0%
EOSINOPHIL [3]: 0.33%
ERYTHROCYTE COUNT [3]: 5.59 x10E6/uL
HEMATOCRIT [3]: 34.87%
HEMOGLOBIN [3]: 13.8 G/DL
LEUKOCYTE COUNT [3]: 12.17 x10E3/uL
LYMPHOCYTE [3]: 84%
MEAN CORPUSCULAR HEMOGLOBIN [3]: 24.77 pg
MEAN CORPUSCULAR HEMOGLOBIN CONCENTRATION [3]: 39.6 G/DL
MEAN CORPUSCULAR VOLUME [3]: 62.47 fL
MONOCYTE [3]: 2.33%
NEUTROPHIL [3]: 13.33%
NUCLEATED RED BLOOD CELLS [3]: 0 /100WBC
PLATELET COUNT [3]: 1299.67 x10E3/uL
ALANINE AMINOTRANSFERASE [3]: 81.67 u/L
ALBUMIN [3]: 3.93 G/DL
ALKALINE PHOSPHATASE [3]: 319.33 u/L
ASPARTATE AMINOTRANSFERASE [3]: 104.67 u/L
BLOOD UREA NITROGEN [3]: 13.67 mg/dL
CARBON DIOXIDE [3]: 25.33 mmol/L
CHLORIDE [3]: 101 MEQ/L
CHOLESTEROL [3]: 119.67 mg/dL
CREATINE PHOSPHOKINASE [3]: 535.33 u/L
CREATININE [3]: 0.16 mg/dL
GLUCOSE [3]: 133.33 mg/dL
LACTATE DEHYDROGENASE [3]: 507 u/L
LIPASE [3]: 11.33 u/L
PHOSPHORUS [3]: 11.5 mg/dL
POTASSIUM [3]: 5.38 MEQ/L
SODIUM [3]: 142.53 MEQ/L
TOTAL BILIRUBIN [3]: 0.13 mg/dL
TOTAL PROTEIN [3]: 5.7 G/DL
URIC ACID [3]: 1.23 mg/dL

Source: ChEMBL document CHEMBL3885881, “DrugMatrix”
